Experimental data published in the NIST ThermoML archive (doi:10.1016/j.fluid.2015.09.036).
± gives the expanded uncertainty stated by the source.

Assay: wn = mass fraction of the nth substance listed
Conditions: 101.3 kPa, Liquid, Vibrating tube method

SMILES | mass density (283.15 K, w1 = 0.1926) | mass density (303.15 K, w1 = 0.4065) | mass density (313.15 K, w1 = 0.5552) | mass density (283.15 K, w1 = 0.06948) | mass density (303.15 K, w1 = 0.1384) | mass density (313.15 K, w1 = 0.1853)
O=C(O)CCCC(=O)O [1,5-pentanedioic acid] + CCO | 967.2 ± 0.8 kg/m3 | 999.4 ± 1.6 kg/m3 | 1005.4 ± 1.8 kg/m3 | – | – | –
O=C(O)CCCCC(=O)O [1,6-hexanedioic acid] + CCO | – | – | – | 841 ± 0.3 kg/m3 | 855.2 ± 0.5 kg/m3 | 876.9 ± 0.7 kg/m3
